# In article PMC8294803, “A Roadmap to the Structure-Related Metabolism Pathways of Per- and Polyfluoroalkyl Substances in the Early Life Stages of Zebrafish (Danio rerio)” (Environmental Health Perspectives, 2021):
# Several values for one entry are separate records, joined by “and”; a condition that tells them apart may be missing. Equal values may be shown once.
# Experiments:
# zebrafish larvae [1] = experiment: Identification of taurine conjugates by the DIPIC-Frag method in zebrafish larvae; type: in vivo, Danio rerio; conditions: among 74 PFAS
# Description: To identify the taurine conjugates in zebrafish larvae exposed to PFAS, we used the data-independent precursor isolation and characteristic fragment (DIPIC-Frag) method developed in previous studies ([Peng et al. 2015], [2016]) to enhance the coverage inspired by the detection of the characteristic fragment from taurine conjugates ( [taurine-H]^− , m/z 124.0063). Then, the taurine fragment peak was extracted from each AIF window across all 243 raw MS data. Once the taurine fragment peak was detected, corresponding precursor ions were identified from the same window and sample by aligning their chromatographic peaks. The precursor ions were further confirmed by their co-occurrences with the taurine fragment across samples. Once precursor ions were identified, the compound formulas and structures were predicted by interpreting high-resolution MS and MS/MS spectra, as mentioned above.
# zebrafish embryos [2] = conditions: for pericardial oedemata, Mean / spinal curvature, Mean / tail dysplasia, Mean: 5μM through 120 hpf, malformation rate; for Mortality (%): 5 µM, exposure through 120 hpf
# zebrafish embryos [3] = experiment: Time courses of carboxamides and PFCA metabolites in zebrafish embryos/larvae; type: in vivo, Danio rerio; conditions: zebrafish exposed to 5 μM of 19, 31 and 38 separately, N=20, three replicates
# Description: Time courses of carboxamides (19, 31, and 38) and corresponding perfluoroalkyl carboxylic acid (PFCA) metabolites in zebrafish larvae were investigated. The procedure of zebrafish embryo collection was described above. Twenty embryos were randomly assigned into each well of a 24-well plate. Subsequently, 15 wells were dosed with 3mL of each chemical ( 5μM ). […] The exposure medium was prepared fresh and changed each day, and dead larvae were discarded. For each chemical, 3 wells were harvested every 24 h, and the surviving larvae were transferred to three different tubes for further PFAS extraction ( N=12–18 ).
# zebrafish larvae [4] = experiment: Nontargeted analysis of PFAS metabolites in zebrafish larvae (high-resolution MS)
# Description: (§1) Zebrafish embryos were collected immediately after spawning, within 1 h, and subsequently transferred to 24-well plates with 1mL of facility water ( 0.036g sea salt, 0.15g sodium bicarbonate in 2L of reverse osmosis water). […] Three well replicates on the same plate were conducted for each concentration of individual chemical. […] Seven batches of experiments were performed to test all 74 PFAS. DMSO controls were incorporated in each batch of exposure experiments. Three replicates were performed for each treatment group, and 20 embryos were used for each replicate. […] For daily replenishment, 2.5mL of old exposure medium were replaced with freshly prepared medium every 24 h from 24 to 96 h post fertilization (hpf). Hatched or dead embryo numbers were recorded every 24 hpf, after which dead embryos were discarded from the growth media. Dead embryos or unhatched embryos were not used for PFAS measurement because the metabolism of PFAS might have been impacted. Zebrafish larvae collection occurred at 120 hpf. First, the larvae were anesthetized by cooling the plate in ice water (0–4°C) for ∼20 min . Then 8–15 larvae in each well were transferred into 1.5-mL tubes. Exposure media was carefully removed, and then the larvae were weighed (wet weight) after blotting excess water with a paper towel. […] Samples were stored at −80 °C until further chemical analysis was performed. Survival rate and hatching rate were calculated by summarizing all the documented data from the whole treatment duration. […] The exposure experiment of PFOSA was repeated using the same procedure as described above.
# (§2) Each sample was spiked with 2μL of 0.2μg/mL mass-labeled PFAS mixture. Following this, 500μL of dichloromethane/methanol (2:1, vol/vol) was added to each sample for PFAS extraction. Larvae were then homogenized via ultrasonic probe, followed by 30 min of shaking and 30 min of sonication. Each sample was centrifuged at 14,000×g for 5 min, after which the supernatant was transferred to new tubes. Extraction was repeated once and the two supernatants were combined, evaporated under nitrogen flow, and reconstituted in 200μL of methanol for MS analysis.
# (§3) Three microliters of each zebrafish extract was applied to a C18 column ( 1.5μm; 2.1mm×50mm; Thermo Scientific) and analyzed using a Vanquish ultra-HPLC system (Thermo Fisher Scientific) coupled to a Q Exactive high-resolution mass spectrometer (Thermo Fisher Scientific). The sampler and column compartments were maintained at 4°C and 40°C, respectively. The aqueous mobile phase solution (A) consisted of water, whereas the organic mobile phase solution (B) consisted of acetonitrile. […] MS data was acquired in full scan mode (100–1000 m/z, 70,000 mass resolution, 3×10^6 maximum ions collected per 100 ms), and tandem MS (MS/MS) data was recorded by all-ion fragmentation (AIF) mode. Negative and positive ion modes were carried out simultaneously at a 10-min method duration. […] An overview of the analyses conducted on the various PFAS is available in Table S2.
# Nontargeted data analysis was accomplished with R scripts that are available on Github (https://github.com/huiUofT/PFASmetabolite). […] The peak features were matched across samples with a mass tolerance of 2.5 ppm and a RT window of 20 s, after RT adjustment. The ratio of abundances of each feature in treatment groups relative to the control group (DMSO) was calculated. The p -values of the difference between two groups were determined by student’s t -tests.
# zebrafish larvae [5] = experiment: Bioconcentration factors (BCF) of PFAS in zebrafish larvae; conditions: for BCF 0.5µM: 0.5 µM exposure; for BCF 0.5µM / BCF 5µM: 120 hpf, three replicates; for BCF 5µM: 5 µM exposure
# Description: as §1, §2, §3
# GraphPad Prism (version 7.0.4; GraphPad Software) and R studio (version 1.1.456; R Studio Inc.) software was used, and an ANOVA with Dunnett tests was employed to evaluate the statistical significance of the percentage hatched and mortality rate. Exponential regressions were used to determine the relationships between bioconcentration factor (BCF) and binding affinities ( Kd ) to L-FABP.
# [6] = target: liver fatty acid binding protein (L-FABP); design: method as in Yang et al. 2020; conditions: ref Yang et al. 2020; read-out: Kd (μM), L-FABP binding affinity; cited from earlier work
# [7] = target: T1, recombinant human liver carboxylesterase 1 (hCES1) (Homo sapiens, UniProt P23141); experiment: Hydrolysis of PFAS by recombinant hCES1; type: in vitro ADME; conditions: for percentage of polyfluoroalkyl carboxamide 19, hCES1: 100 μg/L hCES1; for percentage of polyfluoroalkyl carboxamide 19, hCES1 / percentage of polyfluoroalkyl carboxamide 19, Control: 37 °C, 1 hour, N=3; for percentage of polyfluoroalkyl carboxamide 19, Control: vehicle control without hCES1
# T1 construct: purchased Sigma Aldrich
# T1 sequence (P23141 18-567): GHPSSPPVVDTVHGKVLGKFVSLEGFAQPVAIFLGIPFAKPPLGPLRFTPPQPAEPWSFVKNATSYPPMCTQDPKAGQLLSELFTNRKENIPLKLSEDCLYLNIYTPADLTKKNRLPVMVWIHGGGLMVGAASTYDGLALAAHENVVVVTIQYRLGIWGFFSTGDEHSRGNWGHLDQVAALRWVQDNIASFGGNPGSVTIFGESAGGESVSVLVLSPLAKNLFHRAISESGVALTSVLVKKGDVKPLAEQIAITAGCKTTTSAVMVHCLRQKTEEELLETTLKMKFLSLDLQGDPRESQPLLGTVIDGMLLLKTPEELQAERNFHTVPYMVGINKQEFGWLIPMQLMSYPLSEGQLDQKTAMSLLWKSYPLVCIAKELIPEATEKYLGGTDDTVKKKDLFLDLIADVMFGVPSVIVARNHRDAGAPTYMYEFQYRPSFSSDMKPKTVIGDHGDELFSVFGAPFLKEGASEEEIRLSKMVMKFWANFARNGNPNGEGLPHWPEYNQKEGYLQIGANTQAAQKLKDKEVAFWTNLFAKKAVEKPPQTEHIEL
# Description: Because recombinant zebrafish CES is not available, we decided to use hCES1 to evaluate the structure-related hydrolysis of PFAS. […] In vitro enzymatic activity experiments were carried out for 1 h in 1.5-mL tubes with 100μL phosphate buffer ( 137 mM sodium chloride, 10 mM phosphate buffer, 2.7 mM potassium chloride; pH 7.4) at 37°C with shaking. Reaction mixtures contained different concentrations of PFAS (1, 10, and 50μM ) and 100μg/L hCES1. […] To stop the hydrolysis reaction, four times the volume of ice-cold methanol was added. The hCES1 protein was precipitated out by centrifugation ( 14,000×g , 10 min). The supernatant was transferred to a new tube and analyzed via MS for the analysis of parent compounds and suspected metabolites (i.e., carboxylates).
compound,measurement,setting,value
"COC(=O)CCC(F)(F)C(F)(F)C(F)(F)C(F)(F)F [compound 39, Methyl 2H,2H,3H,3H-perfluoroheptanoate]",Taurine conjugates detected,zebrafish larvae [1],taurine conjugates were detected
same,"pericardial oedemata, Mean",zebrafish embryos [2],0.00%
same,"spinal curvature, Mean",zebrafish embryos [2],0.00%
same,"tail dysplasia, Mean",zebrafish embryos [2],0.00%
same,Mortality (%),zebrafish embryos [2],1.1%
O=C(O)C(F)(F)C(F)(F)C(F)(F)F [PFBA (12)],Peak intensity in zebrafish,zebrafish embryos [3]; 24 hpf,10634213 and 16343253 and 15866316
same,Peak intensity in zebrafish,zebrafish embryos [3]; 48 hpf,25172596 and 26956389 and 28007592
same,Peak intensity in zebrafish,zebrafish embryos [3]; 72 hpf,26852594 and 32851030 and 26877542
same,Peak intensity in zebrafish,zebrafish embryos [3]; 96 hpf,47637483 and 46740315 and 40653414
same,Peak intensity in zebrafish,zebrafish embryos [3]; 120 hpf,68162507 and 69974600 and 72855428
"OCCCC(F)(F)C(F)(F)C(F)(F)F [compound 49, 3-(Perfluoropropyl)propanol]",Taurine conjugates detected,zebrafish larvae [1],taurine conjugates were detected
same,"pericardial oedemata, Mean",zebrafish embryos [2],0.00%
same,"spinal curvature, Mean",zebrafish embryos [2],0.00%
same,"tail dysplasia, Mean",zebrafish embryos [2],0.00%
same,Mortality (%),zebrafish embryos [2],1.1%
"3-(Perfluoro-2-butyl)propane-1,2-diol [compound 30]",Taurine conjugates detected,zebrafish larvae [1],taurine conjugates were detected
same,"pericardial oedemata, Mean",zebrafish embryos [2],2.22%
same,"spinal curvature, Mean",zebrafish embryos [2],2.22%
same,"tail dysplasia, Mean",zebrafish embryos [2],0.00%
same,Mortality (%),zebrafish embryos [2],0%
"O=C(O)C(F)(F)C(F)(F)C(F)F [compound 4, 4H-Perfluorobutanoic acid]",Peak intensity of PFCA in zebrafish embryos directly exposed to the PFCA,"zebrafish larvae [4]; 5μM through 120 hpf, single replicates, listed as 1H-PFBA",18758096 and 21668103 and 32644288
same,Concentration in zebrafish larvae directly exposed,zebrafish larvae [5]; 5μM of the PFCA itself,7.0 ± 1.3 µM
same,BCF 0.5µM,zebrafish larvae [5]; zebrafish larvae,3.397 L/kg
same,BCF 5µM,zebrafish larvae [5]; zebrafish larvae,1.9 ± 0.4 L/kg
same,Kd,[6],352 µM
same,"pericardial oedemata, Mean",zebrafish embryos [2],1.11%
same,"spinal curvature, Mean",zebrafish embryos [2],2.22%
same,"tail dysplasia, Mean",zebrafish embryos [2],0.00%
same,Mortality (%),zebrafish embryos [2],0%
O=C(O)C(F)(F)C(F)(F)C(F)(F)C(F)F [1H-PFPeA],Peak intensity in zebrafish,zebrafish embryos [3]; 24 hpf,41617598 and 43836041 and 44656574
same,Peak intensity in zebrafish,zebrafish embryos [3]; 48 hpf,60989972 and 64452114 and 58767796
same,Peak intensity in zebrafish,zebrafish embryos [3]; 72 hpf,101000000 and 97804534 and 98584848
same,Peak intensity in zebrafish,zebrafish embryos [3]; 96 hpf,168000000 and 176000000 and 174000000
same,Peak intensity in zebrafish,zebrafish embryos [3]; 120 hpf,221000000 and 206000000 and 215000000
"O=C(O)C=CC(F)(C(F)(F)F)C(F)(F)F [compound 56, 3-(Perfluoroisopropyl)-2-propenoic acid]",Taurine conjugates detected,zebrafish larvae [1],taurine conjugates were detected
same,BCF 0.5µM,zebrafish larvae [5]; zebrafish larvae,2.65 L/kg
same,BCF 5µM,zebrafish larvae [5]; zebrafish larvae,1.6 ± 0.21 L/kg
same,"pericardial oedemata, Mean",zebrafish embryos [2],0.00%
same,"spinal curvature, Mean",zebrafish embryos [2],0.00%
same,"tail dysplasia, Mean",zebrafish embryos [2],0.00%
same,Mortality (%),zebrafish embryos [2],4.4%
"O=C(O)C(F)(F)C(F)(F)C(F)(F)C(F)(F)F [PFPeA, perfluoropentanoic acid]",Peak intensity in zebrafish,zebrafish embryos [3]; 24 hpf,42022849 and 47643542 and 46800668
same,Peak intensity in zebrafish,zebrafish embryos [3]; 48 hpf,46439212 and 83368187 and 82483907
same,Peak intensity in zebrafish,zebrafish embryos [3]; 72 hpf,149000000 and 148000000 and 143000000
same,Peak intensity in zebrafish,zebrafish embryos [3]; 96 hpf,242000000 and 252000000 and 243000000
same,Peak intensity in zebrafish,zebrafish embryos [3]; 120 hpf,224000000 and 215000000 and 223000000
"NC(=O)C(F)(F)C(F)(F)C(F)(F)C(F)(F)F [compound 19, Nonafluoropentanamide]","percentage of polyfluoroalkyl carboxamide 19, hCES1",[7]; 1 μM 19,0.00%
same,"percentage of polyfluoroalkyl carboxamide 19, Control",[7]; 1 μM 19,114.95% and 85.05%
same,"percentage of polyfluoroalkyl carboxamide 19, hCES1",[7]; 10 μM 19,0.00%
same,"percentage of polyfluoroalkyl carboxamide 19, Control",[7]; 10 μM 19,100.46% and 90.28% and 109.26%
same,Parent hydrolyzed by hCES1,"[7]; 10μM PFAS, 100μg/L hCES1",completely metabolized
same,"Parent PFAS, hCES1 (%)","[7]; 10 μM PFAS, 100 μg/L hCES1, phosphate buffer 37 °C 1 hour, single replicates, axis %Control",0.00%
same,"Parent PFAS, Control (%)","[7]; 10 μM PFAS, without hCES1, phosphate buffer 37 °C 1 hour, single replicates",100.46% and 90.28% and 109.26%
same,"percentage of polyfluoroalkyl carboxamide 19, hCES1",[7]; 50 μM 19,62.27% and 65.75% and 66.90%
same,"percentage of polyfluoroalkyl carboxamide 19, Control",[7]; 50 μM 19,96.65% and 95.06% and 108.30%
same,Metabolites / hydrolysis products in zebrafish larvae,"zebrafish larvae [4]; in vivo, nontargeted analysis",high abundances of metabolized carboxylates were detected
same,BCF,"zebrafish larvae [5]; zebrafish larvae, exposure concentration not given",< 10 L/kg
same,"pericardial oedemata, Mean",zebrafish embryos [2],0.00%
same,"spinal curvature, Mean",zebrafish embryos [2],0.00%
same,"tail dysplasia, Mean",zebrafish embryos [2],0.00%
same,Mortality (%),zebrafish embryos [2],1.1%
